Columns and labels:
[1] = Half life in human liver microsomes; assay type: ADME, Microsome
[2] = Unbound fraction in human serum; assay type: ADME, cell-free
[3] = target: T1, Nuclear receptor subfamily 1 group I member 2 (Homo sapiens, UniProt O75469); experiment: Activity at PXR (unknown origin)
T1 sequence (O75469 whole entry): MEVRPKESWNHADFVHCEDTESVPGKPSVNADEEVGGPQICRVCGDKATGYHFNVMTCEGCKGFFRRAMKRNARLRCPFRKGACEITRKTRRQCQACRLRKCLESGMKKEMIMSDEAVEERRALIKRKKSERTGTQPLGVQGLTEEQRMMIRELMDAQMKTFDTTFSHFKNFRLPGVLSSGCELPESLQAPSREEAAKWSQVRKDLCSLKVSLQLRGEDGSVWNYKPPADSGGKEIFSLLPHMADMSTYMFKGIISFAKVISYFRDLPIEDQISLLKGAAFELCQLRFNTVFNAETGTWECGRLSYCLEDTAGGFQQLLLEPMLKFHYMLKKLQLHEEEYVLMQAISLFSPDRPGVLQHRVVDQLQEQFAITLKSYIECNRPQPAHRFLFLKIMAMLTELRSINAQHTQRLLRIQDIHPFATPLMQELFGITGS

[4] = Cmax in Balb/c mouse at 10 mg/kg, po; assay type: ADME, organism-based; design: dose 10 mg/kg, route oral; conditions: in vivo
[5] = target: T2, Nuclear receptor ROR-alpha (Homo sapiens, UniProt P35398); experiment: Agonist activity at RORalpha (unknown origin) by Gal4-Luc reporter gene assay
T2 sequence (P35398 whole entry): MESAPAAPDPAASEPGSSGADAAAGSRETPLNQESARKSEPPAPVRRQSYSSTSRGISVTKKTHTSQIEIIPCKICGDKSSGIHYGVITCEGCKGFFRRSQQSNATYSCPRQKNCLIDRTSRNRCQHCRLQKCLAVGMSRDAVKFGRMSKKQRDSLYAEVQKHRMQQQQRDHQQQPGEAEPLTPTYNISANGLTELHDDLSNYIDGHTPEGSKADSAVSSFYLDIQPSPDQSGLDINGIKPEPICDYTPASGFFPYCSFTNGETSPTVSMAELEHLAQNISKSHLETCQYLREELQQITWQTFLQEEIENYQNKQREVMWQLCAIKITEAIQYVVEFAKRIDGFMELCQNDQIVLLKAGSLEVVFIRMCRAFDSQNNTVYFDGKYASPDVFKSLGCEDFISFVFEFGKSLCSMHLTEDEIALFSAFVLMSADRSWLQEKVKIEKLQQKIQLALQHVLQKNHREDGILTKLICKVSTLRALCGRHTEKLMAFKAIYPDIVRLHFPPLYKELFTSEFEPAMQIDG

[6] = target: T3, Nuclear receptor ROR-gamma (Mus musculus, UniProt P51450); experiment: Inverse agonist activity at RORgammat in mouse cells by mTh17 assay; assay type: cell-based
T3 sequence (P51450 whole entry): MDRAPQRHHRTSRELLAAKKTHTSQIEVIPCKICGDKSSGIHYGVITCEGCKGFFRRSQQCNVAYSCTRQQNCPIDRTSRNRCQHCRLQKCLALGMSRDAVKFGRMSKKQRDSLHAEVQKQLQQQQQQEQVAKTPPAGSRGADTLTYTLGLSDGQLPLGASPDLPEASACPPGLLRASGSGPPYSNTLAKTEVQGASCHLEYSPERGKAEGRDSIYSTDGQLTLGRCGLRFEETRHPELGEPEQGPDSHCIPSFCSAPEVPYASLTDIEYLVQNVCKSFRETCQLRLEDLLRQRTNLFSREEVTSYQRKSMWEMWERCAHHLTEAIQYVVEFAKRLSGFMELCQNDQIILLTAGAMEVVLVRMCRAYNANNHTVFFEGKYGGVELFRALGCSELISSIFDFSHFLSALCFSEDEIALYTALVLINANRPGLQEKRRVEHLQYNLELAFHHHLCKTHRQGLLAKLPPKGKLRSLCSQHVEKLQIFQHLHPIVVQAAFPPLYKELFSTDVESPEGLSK

[7] = target: T4, Oxysterols receptor LXR-alpha (Homo sapiens, UniProt Q13133); experiment: Agonist activity at LXRalpha (unknown origin) by Gal4-Luc reporter gene assay
T4 sequence (Q13133 whole entry): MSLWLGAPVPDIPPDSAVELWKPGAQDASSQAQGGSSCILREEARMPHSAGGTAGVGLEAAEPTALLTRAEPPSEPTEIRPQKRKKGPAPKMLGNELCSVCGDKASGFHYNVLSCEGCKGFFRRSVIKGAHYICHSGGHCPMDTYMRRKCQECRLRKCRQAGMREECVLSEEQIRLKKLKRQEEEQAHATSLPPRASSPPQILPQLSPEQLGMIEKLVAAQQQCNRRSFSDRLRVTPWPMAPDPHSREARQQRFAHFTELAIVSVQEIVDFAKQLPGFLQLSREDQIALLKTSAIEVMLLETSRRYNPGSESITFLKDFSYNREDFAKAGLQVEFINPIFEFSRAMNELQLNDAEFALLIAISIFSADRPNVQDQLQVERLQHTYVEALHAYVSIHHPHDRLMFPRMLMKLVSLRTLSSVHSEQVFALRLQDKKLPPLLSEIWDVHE

Cytochrome P450 2C9 = Cytochrome P450 2C9 (Homo sapiens, UniProt P11712); experiment: Inhibition of recombinant CYP2C9 (unknown origin); assay type: ADME
Cytochrome P450 2C9, sequence (P11712 whole entry): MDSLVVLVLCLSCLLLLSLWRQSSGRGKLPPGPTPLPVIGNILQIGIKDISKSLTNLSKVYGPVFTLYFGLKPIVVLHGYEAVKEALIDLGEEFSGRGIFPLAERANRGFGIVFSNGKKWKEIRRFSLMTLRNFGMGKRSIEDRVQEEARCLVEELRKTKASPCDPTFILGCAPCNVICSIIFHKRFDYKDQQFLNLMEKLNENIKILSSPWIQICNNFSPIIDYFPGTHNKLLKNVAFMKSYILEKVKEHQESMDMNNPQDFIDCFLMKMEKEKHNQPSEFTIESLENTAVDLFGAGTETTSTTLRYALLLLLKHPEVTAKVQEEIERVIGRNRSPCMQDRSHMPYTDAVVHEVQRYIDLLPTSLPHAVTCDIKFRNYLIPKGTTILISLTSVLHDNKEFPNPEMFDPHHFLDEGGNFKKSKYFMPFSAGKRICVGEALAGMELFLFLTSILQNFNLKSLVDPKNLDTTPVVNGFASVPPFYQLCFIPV

Cytochrome P450 2C19 = Cytochrome P450 2C19 (Homo sapiens, UniProt P33261); experiment: Inhibition of recombinant CYP2C19 (unknown origin); assay type: ADME
Cytochrome P450 2C19, sequence (P33261 whole entry): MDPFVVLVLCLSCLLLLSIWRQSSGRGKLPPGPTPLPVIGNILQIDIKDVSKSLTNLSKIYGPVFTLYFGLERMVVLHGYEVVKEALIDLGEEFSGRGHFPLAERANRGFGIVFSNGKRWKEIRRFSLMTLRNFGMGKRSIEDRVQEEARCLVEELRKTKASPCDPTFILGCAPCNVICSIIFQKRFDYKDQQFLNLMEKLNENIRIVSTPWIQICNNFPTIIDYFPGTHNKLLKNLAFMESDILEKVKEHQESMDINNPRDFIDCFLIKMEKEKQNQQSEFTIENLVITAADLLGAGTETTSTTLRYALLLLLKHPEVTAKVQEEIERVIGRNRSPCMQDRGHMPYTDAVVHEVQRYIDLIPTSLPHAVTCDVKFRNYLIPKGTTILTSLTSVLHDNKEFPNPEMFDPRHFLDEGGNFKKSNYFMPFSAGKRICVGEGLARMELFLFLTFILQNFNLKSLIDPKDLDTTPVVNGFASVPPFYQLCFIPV

Cytochrome P450 2D6 = Cytochrome P450 2D6 (Homo sapiens, UniProt P10635); experiment: Inhibition of recombinant CYP2D6 (unknown origin); assay type: ADME
Cytochrome P450 2D6, sequence (P10635 whole entry): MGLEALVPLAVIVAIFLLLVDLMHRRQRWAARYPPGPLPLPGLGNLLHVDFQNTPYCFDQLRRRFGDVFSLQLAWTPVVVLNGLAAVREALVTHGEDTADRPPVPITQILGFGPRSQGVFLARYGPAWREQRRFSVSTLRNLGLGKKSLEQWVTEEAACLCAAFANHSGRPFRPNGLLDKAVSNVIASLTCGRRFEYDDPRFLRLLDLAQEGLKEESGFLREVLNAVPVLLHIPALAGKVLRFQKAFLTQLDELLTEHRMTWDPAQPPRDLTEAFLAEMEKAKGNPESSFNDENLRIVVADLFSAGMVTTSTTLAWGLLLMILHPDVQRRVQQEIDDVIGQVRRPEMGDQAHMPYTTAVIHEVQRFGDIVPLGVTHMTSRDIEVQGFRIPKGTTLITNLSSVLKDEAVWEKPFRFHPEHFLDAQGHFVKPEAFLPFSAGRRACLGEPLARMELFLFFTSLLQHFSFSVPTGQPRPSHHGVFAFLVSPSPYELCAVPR

[8] = Permeability across apical to basolateral side in human Caco2 cells; assay type: ADME, cell-based; conditions: Caco-2, read-out: permeability
[9] = Unbound fraction in rat serum; assay type: ADME, cell-free
Mus musculus [10] = experiment: Suppression of IL-17F production in mouse stimulated at time -24 hrs with IL-2 and at time 0, 7, and 24 hrs with IL-2/IL-23 mixture dosed with compound at 0 and 24 hrs and measured at 30 hrs
Mus musculus [11] = experiment: Suppression of IL-22 RNA expression in skin region of mouse model of IL-23 induced acanthosis model of psoriasis at 3 to 30 mg/kg, po BID for 10 days measured every other day; assay type: functional
[12] = Cmax in mouse at 4 mg/kg, po; assay type: ADME, organism-based; design: dose 4 mg/kg, route oral; conditions: in vivo
[13] = Total AUC in rat at 4 mg/kg, po; assay type: ADME, organism-based; design: dose 4 mg/kg, route oral, time AUCmax; conditions: in vivo
[14] = Volume of distribution at steady state in mouse at 2 mg/kg, iv; assay type: ADME, organism-based; conditions: in vivo, read-out: Vdss
[15] = Volume of distribution at steady state in rat at 2 mg/kg, iv; assay type: ADME, organism-based; conditions: in vivo, read-out: Vdss
Mus musculus [16] = experiment: Suppression of ear thickness in mouse model of IL-23 induced acanthosis model of psoriasis at 10 mg/kg, po BID for 10 days measured every other day relative to anti-IL-23 positive control; assay type: functional
Mus musculus [17] = experiment: Suppression of IL-22 RNA expression in skin region of mouse model of IL-23 induced acanthosis model of psoriasis at 10 mg/kg, po BID for 10 days measured every other day relative to control; assay type: functional; conditions: 240 h
Mus musculus [18] = experiment: Suppression of IL-22 RNA expression in skin region of mouse model of IL-23 induced acanthosis model of psoriasis at 30 mg/kg, po BID for 10 days measured every other day relative to control; assay type: functional; conditions: 240 h

half-life [1]: > 2 h
fraction unbound [2]: 0.011
IC50 [3]: > 40 µM
Cmax [4]: 2.9 µM
EC50 [5]: > 10 µM
EC50 [6]: 0.013 µM
EC50 [7]: > 7.5 µM
IC50 (Cytochrome P450 2C9): 10 µM
IC50 (Cytochrome P450 2C19): > 20 µM
IC50 (Cytochrome P450 2D6): > 20 µM
Papp A→B [8]: 130 nm/s
fraction unbound [9]: 0.011
EC50 (Mus musculus [10]): 0.088 µM
Cmax [12]: 2.2 µM
AUC [13]: 17 µM·h
Vd [14]: 2.7 L/kg
Vd [15]: 2.9 L/kg
SMILES: O=C(N1CC[C@@]2(S(=O)(=O)c3ccc(F)cc3)c3ccc(C(F)(C(F)(F)F)C(F)(F)F)cc3CC[C@@H]12)C1(O)CCS(=O)(=O)CC1
Activity (Mus musculus [11]): Dose-dependent effect
ED50 (Mus musculus [11]; 240 h): 3 mg/kg
Efficacy (Mus musculus [16]): 88%
inhibition in vivo at 10 mg/kg (Mus musculus [17]): 92%
inhibition in vivo at 30 mg/kg (Mus musculus [18]): 97%

Source: ChEMBL document CHEMBL4334512, “Rationally Designed, Conformationally Constrained Inverse Agonists of RORγt-Identification of a Potent, Selective Series with Biologic-Like in Vivo Efficacy” (J Med Chem, 2019)
